Key:
[1] = biological target: farnesyl protein transferase (Homo sapiens, UniProt P49354+P49356); experiment: In vitro assay for inhibition of farnesyl protein transferase; assay type: biochemical; settings: negative log value of the IC50-value; IC50 = concentration needed to reduce the product of the enzymatic reaction to 50% of the control; read-out: Enzyme activity pIC50 (converted)
Method: An in vitro assay for inhibition of farnesyl transferase was performed essentially as described in WO 98/40383, pages 33-34. When appropriate, IC50-values (concentration of the drug, needed to reduce the product of the enzymatic reaction, to 50% of the conrol) were computed using probit analysis for graded data (Finney, D. J., Probit Analuses, 2nd Ed. Chapter 10, Graded Responses, Cambridge Univerity Press, Cambridge 1962). Herein (see table F-3) the effects of test compounds are expressed as pIC50 (the negative log value of the IC50-value). Also the intermediate compounds described in the table F-1 show activity in the in vitro assay for inhibition of farnesyl protein transferase.

Compound	IC50 [1] [nM]	melting point [°C]
Cn1cnnc1C(O)(c1ccc(Cl)cc1)c1cc2c3c(c1)c(-c1cccc(Cl)c1)c(Br)c(=O)n3CC2 (stereo not shown) [Compound 12]	> 100	
Cn1cnnc1C(N)(c1ccc(F)cc1)c1cc2c3c(c1)c(-c1cccc(Cl)c1)cc(=O)n3CC2 (stereo not shown) [Compound 9, 8-[amino(4-fluorophenyl)(4-methyl-4H-1,2,4-triazol-3-yl)methyl]-6-(3-chlorophenyl)-1,2-dihydro-4H-pyrrolo[3,2,1-ij]quinolin-4-one]	2.98	
Cn1cnnc1C(c1ccc(F)cc1)(c1cc2c3c(c1)c(-c1cccc(Cl)c1)cc(=O)n3CC2)n1ccnc1 (stereo not shown) [Compound 8, 6-(3-chlorophenyl)-8-[(4-fluorophenyl)-1H-imidazol-1-yl(4-methyl-4H-1,2,4-triazol-3-yl)methyl]-1,2-dibydro-4H-pyrrolo[3,2,1-ij]quinolin-4-one]	3.84	
Cn1cnnc1C(c1ccc(C#N)cc1)c1cc2c3c(c1)c(-c1cccc(Cl)c1)cc(=O)n3CC2 (stereo not shown) [Compound 2, 4-[[6-(3-chlorophenyl)-1,2-dihydro-4-oxo-4H-pyrrolo[3,2,1-ij]quinolin-8-yl](4-methyl-4H-1,2,4-triazol-3-yl)methyl]-benzonitrile]	2.02	174
Cn1cnnc1C(O)(c1ccc(Br)cc1)c1cc2c3c(c1)c(-c1cccc(Br)c1)cc(=O)n3CC2 (stereo not shown) [Compound 13]	5.86	
Cn1cnnc1C(c1ccc(I)cc1)c1cc2c3c(c1)c(-c1cccc(Cl)c1)cc(=O)n3CC2 (stereo not shown) (hydrate or solvate) [Compound 1, 6-(3-chlorophenyl)-1,2-dihydro-8-[(4-iodophenyl)(4-methyl-4H-1,2,4-triazol-3-yl)methyl]-4H-pyrrolo[3,2,1-ij]quinolin-4-one]		194
Cn1cnnc1C(O)(c1ccc(Cl)cc1)c1cc2c3c(c1)c(-c1ccc(Cl)cc1)cc(=O)n3CC2 (stereo not shown) [Compound 11]	< 100	
CC(=O)NC(c1ccc(F)cc1)(c1cc2c3c(c1)c(-c1cccc(Cl)c1)cc(=O)n3CC2)c1nncn1C (stereo not shown) [Compound 5, N-[[6-(3-chlorophenyl)-1,2-dihydro-4-oxo-4H-pyrrolo[3,2,1-ij]quinolin-8-yl](4-fluorophenyl)(4-methyl-4H-1,2,4-triazol-3-yl)methyl]-acetamide]	3.4	196
Cn1cnnc1C(c1ccc(I)cc1)c1cc2c3c(c1)c(-c1cccc(Cl)c1)cc(=O)n3CC2 (stereo not shown) [Compound 1, 6-(3-chlorophenyl)-1,2-dihydro-8-[(4-iodophenyl)(4-methyl-4H-1,2,4-triazol-3-yl)methyl]-4H-pyrrolo[3,2,1-ij]quinolin-4-one]	21.4	

The next lines start with the values.

IC50 [1] [nM]	melting point [°C]	Compound
8.18	183	Cn1cnnc1C(O)(c1ccc(Cl)cc1)c1cc2c3c(c1)c(-c1cccc(Cl)c1)cc(=O)n3CCC2 (stereo not shown) [Compound 3, 7-(3-chlorophenyl)-9-[(4-chlorophenyl)hydroxy(4-methyl-4H-1,2,4-triazol-3-yl)methyl]-2,3-dihydro-1H,5H-benzo[ij]quinolizin-5-one]
29.3		COC(c1ccc(F)cc1)(c1cc2c3c(c1)c(-c1cccc(Cl)c1)cc(=O)n3CC2)c1nncn1C (stereo not shown) [Compound 10, 6-(3-chlorophenyl)-8-[(4-fluorophenyl)methoxy(4-methyl-4H-1,2,4-triazol-3-yl)methyl]-1,2-dihydro-4H-pyrrolo[3,2,1-ij]quinolin-4-one]
< 100	132	COC(c1ccc(Cl)cc1)(c1cc2c3c(c1)c(-c1cccc(Cl)c1)cc(=O)n3CCC2)c1nncn1C (stereo not shown) [Compound 6, 7-(3-chlorophenyl)-9-[(4-chlorophenyl)methoxy(4-methyl-4H-1,2,4-triazol-3-yl)methyl]-2,3-dihydro-1H,5H-benzo[ij]quinolizin-5-one]
3.95	138	Cn1cnnc1C(OCCO)(c1ccc(F)cc1)c1cc2c3c(c1)c(-c1cccc(Cl)c1)cc(=O)n3CC2 (stereo not shown) [Compound 7, 6-(3-chlorophenyl)-8-[(4-fluorophenyl)(2-hydroxyethoxy)(4-methyl-4H-1,2,4-triazol-3-yl)methyl]-1,2-dihydro-4H-pyrrolo[3,2,1-ij]quinolin-4-one]
5.77		Cn1cnnc1C(O)(c1ccc(F)cc1)c1cc2c3c(c1)c(-c1cccc(Cl)c1)cc(=O)n3CC2 (stereo not shown) [Compound 4, 6-(3-chlorophenyl)-8-[(4-fluorophenyl)hydroxy(4-methyl-4H-1,2,4-triazol-3-yl)methyl]-1,2-dihydro-4H-pyrrolo[3,2,1-ij]quinolin-4-one]
